The results in this text go back to patent US20220064141A1, “BENZOPYRIDONE HETEROCYCLIC COMPOUND AND USE THEREOF” (BrightGene Bio-Medical Technology Co., Ltd., priority 2019, published 2022).

SMILES strings stand for the structures.

Data set [1] can be described thus: Safety by body weight change and animal deaths in the MIAPaCa-2 xenograft study. The format is in vivo. The conditions noted are these: for Weight at the Initiation of Administration: baseline. Here is the method:
(§1) Experimental operation: BALB/c nude mice, female, 6- to 8-weeks old, weighing about 17.6 g to 21.1 g. Each mouse was subcutaneously inoculated with 5×10^6 MIAPaCa-2 cells (with Matrigel; the volume ratio was 1:1) in the right flank. The administration was initiated when the average tumor volume reached about 100 cubic millimeters. The test compounds were orally administered daily by intragastric injection (6 mice in each group) for a total of 16 or 23 days. Tumor volumes were measured three times a week. The volume was measured in cubic millimeters and calculated by the following formula: tumor volume (mm^3)=½×(a×b^2) (where a represented the long diameter and b represented the short diameter). The anti-tumor efficacy of the compound was evaluated by TGI (%).The calculation formula was as follows: TGI %=(1−T/C)×100% (T and C were the relative tumor volumes (RTV) of a mouse in the treatment group and a mouse in the control group at a specific time point), respectively. Safety was evaluated according to the changes of the body weight of the animals and animal deaths.

Data set [2] in a line: Pharmacokinetic experiment in male CD-1 mice (IV and PO). In kind it is in vivo. Here is the method: Effect Example 3: Pharmacokinetic Experiment
(1) Compound I-2-2 of the present disclosure prepared in the above Example was used to be formulated into a clear solution (0.3 mg/mL) (2% DMSO+30% PEG 300+2% Tween 80+66% H2O) as a drug for oral administration; and was used to be formulated into a clear solution (0.2 mg/mL) (2% DMSO+30% PEG 300+2% Tween 80+66% H2O) as a drug for intravenous administration.
(2) Male CD-1 mice (three mice in each group, weighing 27 g to 28 g) were provided by Shanghai Slack Laboratory Animal Co., Ltd. The test mice were given an environmental accommodation period of 2 to 4 days before the experiment. The mice were fasted for 8 to 12 hours before administration, and they were provided access to water (2 hours after administration) and food (4 hours after administration).
(3) 12 hours after the mice were fasted but had free access to water, blank plasma at time 0 was taken.
(4) The mice in step 1) were taken; and they were orally (PO) administered 3 mg/kg of the compound to be tested, or intravenously (IV) administered 1 mg/kg of the compound to be tested.
(5) At 5 min, 15 min, 30 min, 1 h, 2 h, 4 h, 8 h, 10 h, and 24 h after oral administration, blood was successively taken from the fundus oculi venous plexus and placed in EP tubes with heparin. After centrifugation at 8000 rpm/min for 5 min, the plasma in upper layer was collected and frozen at −20° C., waiting for LC-MS/MS analysis.
(6) WinNonlin software was used to calculate the pharmacokinetic parameters based on the blood concentration-time data obtained in […]).

Data set [3] has as its system HCT116 human colon cancer cells with high expression of KRAS G13D. Nature of the data set: Cell Titer-Glo cell viability, HCT116 cells (72 h). In kind it is cell-based. As to conditions: HCT-116. The source says:
(§2) Effect Example 2: Pharmacodynamic Assay 2 (Determination of the efficacy of the compounds of the present disclosure on HCT116 human colon cancer cells with high expression of KRAS G13D and A549 human non-small cell lung cancer cells with high expression of KRAS G12S)
(§3) The following method was used to determine the effects of the compounds of the present disclosure on tumor cell proliferation.
(§4) For KRAS G13D subtype, HCT116 human colon cancer cell was used. For KRAS G12S subtype, A549 human non-small cell lung cancer cell was used. The efficacy of the compounds in inhibiting cancer cell viability was determined. HCT116 cells or A549 cells were cultured in a DMEM medium containing 10% fetal bovine serum, 100 U penicillin and […] streptomycin. The cells were cultured in an incubator with 5% CO2 at 37° C. Cancer cell viability was evaluated by determining the content of ATP with Cell Titer-Glo® kit (Luminescent Cell Viability Assay kit, please refer to the manufacturer's instructions for use) and evaluating the inhibition of cell growth.
(§5) The experimental method was proceeded in accordance with the steps in the instructions for the kit, and was described briefly as follows. The test compounds were first dissolved in DMSO to prepare stock solutions, and then the stock solutions were subjected to gradient dilution with the culture media of the corresponding cells, thereby preparing test samples. The final concentrations of the compounds were in the range of 30 μM to 0.01 nM. Tumor cells in logarithmic growth phase were seeded into a 96-well cell culture plate at an appropriate density. After the cell culture plate was left overnight in an incubator with 5% CO2 at 37° C., the test compound samples were added thereto and then the cells were further cultured for 72 hours. After the incubation was complete, an appropriate volume of Cell Titer-Glo® reagent was added into each well, and the cells were incubated at 37° C. for 1 to 4 hours. Then, the […] was read on a microplate reader. The percentage inhibition rates of the compounds at each concentration point were calculated by comparing the absorbance values of the sample wells with that of the control group (0.3% DMSO), and then non-linear regression analysis of the concentration of the compound vs inhibition rate was performed by using GraphPad Prism 5 software, thereby obtaining IC50 values indicating the inhibitory effects of the compounds on cell proliferation.
(In general: ATP-based viability assays read luminescence as a measure of living cells.)

The subject of data set [4] is MIAPaCa-2 human-derived pancreatic cancer cells. In words: In-vivo pharmacodynamic experiment, MIAPaCa-2 subcutaneous xenograft in BALB/c nude mice. The conditions noted are these: for TGI (%) / TIC / Tumor volumes (mm^3) (Day 23): Day 23; for Tumor volumes (mm^3) (Day 0): baseline.
Text: Effect Example 4: In-Vivo Pharmacodynamic Experiment
Purpose of the experiment: To evaluate the anti-tumor effect of the test drug in female BALB/c nude mice model subcutaneously xenografted with MIAPaCa-2 human-derived pancreatic cancer cells.
as §1

Data set [5] concerns A549 human non-small cell lung cancer cells with high expression of KRAS G12S. Nature of the data set: Cell Titer-Glo cell viability, A549 cells (72 h). In kind it is cell-based.
Text: as §2, §3, §4, §5

Where [6] appears, read: 30 mg/kg (Day 0 to Day 9) + 15 mg/kg (Day 10 to Day 16).
Where [7] appears, read: 100 mg/kg (Day 0 to Day 9) + 50 mg/kg (Day 10 to Day 16) + 100 mg (Day 17 to Day 23).
Where [8] appears, read: oral daily 30 mg/kg (Day 0 to Day 9) + 15 mg/kg (Day 10 to Day 16).
[9] abbreviates: oral daily 100 mg/kg (Day 0 to Day 9) + 50 mg/kg (Day 10 to Day 16) + 100 mg (Day 17 to Day 23).

For `C=CC(=O)N1CCN(c2c(C#N)c(=O)n(-c3ccccc3C(C)C)c3cc(-c4c(C)ccc5[nH]ncc45)c(Cl)cc23)[C@@H](C)C1` (single isomer, unassigned) [Compound I-2-2], in data set [1] (setting [6]), the “Weight Change Rate (%)” value is given as “+7.53%”, the “Weight on Day 23” value is reported as 21.3 g and the “Weight at the Initiation of Administration” value was 19.8 g. Besides, in data set [1] (setting [7]), the “Weight Change Rate (%)” value is on record as “+12.32%”, the “Weight on Day 23” value is 22.4 g and the “Weight at the Initiation of Administration” value turned out to be 20.0 g. The same molecule displayed a F in data set [2] (PO 3 mg/kg) of 18.9%. In data set [2] (mouse, plasma, IV 1 mg/kg), this molecule gave an AUC of 867 ng·h/mL, a Vd of 1.17 L/kg, a clearance of 16.7 mL/min/kg and a half-life of 43.1 min. In data set [2] (mouse, plasma, PO 3 mg/kg), the AUC amounted to 479 ng·h/mL, the concentration peaked (Cmax) at 220 ng/mL and the Tmax worked out at 60 min. In addition, in data set [3], the IC50 is > 3000 nM. In data set [4] (setting [8]), the “TGI (%)” value is given as 36.25%, the TIC is 63.75, the “Tumor volumes (mm^3) (Day 23)” value stood at 438.75 mm^3 and the “Tumor volumes (mm^3) (Day 0)” value is 100.25 mm^3. Further, in data set [4] (setting [9]), the “TGI (%)” value amounted to 85.02%, the TIC is 14.98, the “Tumor volumes (mm^3) (Day 23)” value was determined as 179.60 mm^3 and the “Tumor volumes (mm^3) (Day 0)” value is reported as 100.06 mm^3. For the same molecule, the IC50 in data set [5] is > 3000 nM.

By AUC is commonly meant concentration integrated over time. A low value points to less exposure. The term half-life denotes how long it takes for the measured level to halve. Lower therefore signals rapid decline. As usually defined, the Cmax is the highest concentration seen after dosing. Broadly, the Tmax is the time from dosing to the highest level. By IC50 is commonly meant the midpoint of a concentration-inhibition curve. High values mean lower potency, low ones higher potency.
